We go through 15 compounds from PMC10620989, “Going beyond Binary: Rapid Identification of Protein–Protein Interaction Modulators Using a Multifragment Kinetic Target-Guided Synthesis Approach” (Journal of Medicinal Chemistry, 2023).

SMILES strings stand for the structures. “And” between values parts separate entries of the source, which are not always exact repeats. Equal values may be shown once. Read-outs that look alike come from different tables or passages of the source. Some results are limits rather than exact numbers.

In assay [1] the target is GST-tagged mouse Mcl-1-(152–309) (Mus musculus, UniProt P97287). The assay is described as follows: Fluorescence polarization competitive binding assay, GST-Mcl-1 / FITC-Bim-BH3. The settings on record: for inhibition at 50 µM: compound at 50 µM. More on the design: selectivity index: reference not given here. A general note: In fluorescence polarisation assays a small probe gives low polarisation when free and higher when bound to something large.

The target in a further assay is GST-Bcl-XL (Homo sapiens, UniProt Q07817). Put plainly: Fluorescence polarization assay, GST-Bcl-XL / fluorescein-labeled Bak BH3 peptide. Format: binding. To be noted: FP, GST-Bcl-XL and fluorescein-labeled Bak BH3 peptide; ND = not detected.
Assay [2] deals with T1, Mcl-1 (Mus musculus, UniProt P97287). Put plainly: Multifragment KTGS screen against Mcl-1 (5 TA x 38 SZ per well), LC-MS/MS. To be noted: multifragment KTGS, 190 combinations per well, 10 μM Mcl-1, 20 μM each fragment, pH 7.4, 37 °C, 10 h; peak area with protein / without protein.
The target of assay [3] is T1, Mcl-1. Put plainly: Binary KTGS incubation (1 TA x 1 SZ) with Mcl-1, LC-MS/MS. To be noted: binary incubation mixtures with and without Mcl-1.
Where [4] appears, read: FP, GST-Mcl-1 and fluorescein-labeled Bim BH3 peptide, read-out: IC50 on Mcl-1.

T1 sequence (P97287 whole entry, the tested form may be a part): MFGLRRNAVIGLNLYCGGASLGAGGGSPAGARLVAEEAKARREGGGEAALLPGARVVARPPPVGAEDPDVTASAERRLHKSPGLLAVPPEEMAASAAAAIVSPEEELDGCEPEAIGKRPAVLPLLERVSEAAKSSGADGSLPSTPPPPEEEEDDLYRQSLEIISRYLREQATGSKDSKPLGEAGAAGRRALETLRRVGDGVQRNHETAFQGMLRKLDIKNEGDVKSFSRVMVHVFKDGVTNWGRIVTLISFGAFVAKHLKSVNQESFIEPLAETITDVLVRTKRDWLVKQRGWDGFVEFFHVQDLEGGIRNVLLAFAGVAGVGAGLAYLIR
GST-Bcl-XL, sequence (Q07817 whole entry, the tested form may be a part): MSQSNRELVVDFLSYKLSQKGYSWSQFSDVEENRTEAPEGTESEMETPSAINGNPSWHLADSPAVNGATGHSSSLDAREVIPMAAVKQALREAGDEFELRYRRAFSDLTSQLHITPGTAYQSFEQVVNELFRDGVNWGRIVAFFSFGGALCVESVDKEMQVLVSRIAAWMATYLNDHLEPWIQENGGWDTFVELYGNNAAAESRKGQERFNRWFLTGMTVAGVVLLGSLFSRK
GST-tagged mouse Mcl-1-(152–309), sequence (P97287 152-309): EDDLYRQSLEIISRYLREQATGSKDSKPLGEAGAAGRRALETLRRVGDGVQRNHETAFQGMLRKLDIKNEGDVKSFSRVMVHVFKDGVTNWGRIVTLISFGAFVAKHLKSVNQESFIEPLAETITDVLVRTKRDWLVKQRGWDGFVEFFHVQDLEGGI

As a reminder, the IC50 is the concentration needed to halve the response being measured. In general, inhibition refers to the change of the read-out against control, counted positive when it falls. Take `COc1cccc(CN(CCSc2ccccc2)Cc2ccc(S(=O)(=O)NC(=O)c3cccc4ccccc34)cc2)c1` [SZ17TA7, O=C(NS(C1=CC=C(CN(CC2=CC(OC)=CC=C2)CCSC3=CC=CC=C3)C=C1)(=O)=O)C4=C(C=CC=C5)C5=CC=C4]: the IC50 in assay [1] (setting [4]) came to 20.1 µM; on GST-Bcl-XL, 72 µM. The inhibition at 50 µM in assay [1] (FP) is 87.3%. Moreover, the “Amplification coefficient 5TA x 38SZ” value on Mcl-1 [2] is recorded as 10. Further, on Mcl-1 [3], the “Amplification coefficient 1TA x 1SZ” value worked out at 12.

With `O=C(NS(=O)(=O)c1ccc(NCCSc2ccccc2)c([N+](=O)[O-])c1)c1ccc(CCc2ccccn2)cc1` [SZ4TA17, O=C(NS(C1=CC=C(NCCSC2=CC=CC=C2)C([N+]([O-])=O)=C1)(=O)=O)C3=CC=C(CCC4=NC=CC=C4)C=C3], the IC50 in assay [1] (setting [4]) was 61 µM and 60.6 µM; at GST-Bcl-XL, 2.1 µM and 2.08 µM. The same compound gave an inhibition at 50 µM in assay [1] (FP) of 44.7%. This compound also displayed a selectivity index in assay [1] (quotient of the IC50 toward Bcl-XL over the IC50 toward Mcl-1) of 0.03. On Mcl-1 [2], the “Amplification coefficient 5TA x 38SZ” value stood at 8. In addition, on Mcl-1 [3], the “Amplification coefficient 1TA x 1SZ” value was 10.

For `Cc1noc(C)c1-c1ccc(S(=O)(=O)NC(=O)c2ccc(CN3C(=O)C(c4ccc(F)cc4F)=C(c4ccc(F)cc4F)C3=O)cc2)cc1` [SZ32TA42, O=C(NS(C1=CC=C(C2=C(C)ON=C2C)C=C1)(=O)=O)C3=CC=C(CN4C(C(C5=C(F)C=C(F)C=C5)=C(C6=CC=C(F)C=C6F)C4=O)=O)C=C3], the IC50 in assay [1] (setting [4]) turned out to be 19.1 µM; against GST-Bcl-XL, 43.8 µM. In addition, 50 µM produced 91% inhibition in assay [1] (FP). Also, the “Amplification coefficient 5TA x 38SZ” value at Mcl-1 [2] is 10. In addition, the “Amplification coefficient 1TA x 1SZ” value on Mcl-1 [3] was determined as 6.

`O=C(NS(=O)(=O)c1ccc(CN(CCSc2ccccc2)Cc2c(F)cccc2Cl)cc1)c1ccc(-c2ccccn2)cc1` [SZ15TA25, O=C(NS(C1=CC=C(CN(CCSC2=CC=CC=C2)CC3=C(F)C=CC=C3Cl)C=C1)(=O)=O)C4=CC=C(C5=NC=CC=C5)C=C4] had an inhibition at 50 µM in assay [1] (FP) of 89%. Moreover, the concentration for half-maximal inhibition (IC50) in assay [1] (IC50 on Mcl-1) is 15.3 µM; against GST-Bcl-XL, 54.9 µM. Moreover, the “Amplification coefficient 5TA x 38SZ” value on Mcl-1 [2] is listed as 15. Moreover, the “Amplification coefficient 1TA x 1SZ” value on Mcl-1 [3] amounted to 4.5.

Turning to `O=C(NS(=O)(=O)c1ccc(CN(CCSc2ccccc2)Cc2c(F)cccc2Cl)cc1)c1ccc(OC(F)(F)F)cc1` [SZ15TA8, O=C(NS(C1=CC=C(CN(CCSC2=CC=CC=C2)CC3=C(F)C=CC=C3Cl)C=C1)(=O)=O)C4=CC=C(OC(F)(F)F)C=C4], in assay [1], the selectivity index worked out at 6.2. In assay [1] (FP), 50 µM produced 96.5% inhibition. For the same compound, the IC50 in assay [1] (IC50 on Mcl-1) was 7.6 µM; on GST-Bcl-XL, 47 µM. Besides, the “Amplification coefficient 5TA x 38SZ” value on Mcl-1 [2] was determined as 7. In addition, the “Amplification coefficient 1TA x 1SZ” value at Mcl-1 [3] turned out to be 6.

In the case of `NS(=O)(=O)c1ccc(CN(CCSc2ccccc2)Cc2ccc(S(=O)(=O)NC(=O)c3ccc4oc(-c5ccccc5)cc4c3)cc2)cc1` [SZ10TA41, O=C(NS(C1=CC=C(CN(CCSC2=CC=CC=C2)CC3=CC=C(S(=O)(N)=O)C=C3)C=C1)(=O)=O)C4=CC(C=C(C5=CC=CC=C5)O6)=C6C=C4], in assay [1] (FP), the inhibition at 50 µM worked out at 12.4%. Also, the “Amplification coefficient 5TA x 38SZ” value on Mcl-1 [2] is 20. For the same compound, at Mcl-1 [3], the “Amplification coefficient 1TA x 1SZ” value stood at 40.

Consider `O=C(NS(=O)(=O)c1ccc(CN(CCSc2ccccc2)Cc2ccc3c(c2)OCO3)cc1)c1ccc(OC(F)(F)F)cc1` [SZ31TA8, O=C(NS(C1=CC=C(CN(CCSC2=CC=CC=C2)CC3=CC(OCO4)=C4C=C3)C=C1)(=O)=O)C5=CC=C(OC(F)(F)F)C=C5], for which the IC50 in assay [1] (setting [4]) is 5.9 µM. For the same compound, in assay [1] (FP), the inhibition at 50 µM was above 99%. Besides, the “Amplification coefficient 5TA x 38SZ” value at Mcl-1 [2] turned out to be 7. Also, the “Amplification coefficient 1TA x 1SZ” value at Mcl-1 [3] stood at 4.

Take `Cn1cc(C(=O)C2CCCCC2)c2cc(C(=O)NS(=O)(=O)c3ccc(-c4ccc(C(C)(C)C)cc4)cc3)ccc21` [SZ11TA40, O=C(NS(C1=CC=C(C2=CC=C(C(C)(C)C)C=C2)C=C1)(=O)=O)C3=CC(C(C(C4CCCCC4)=O)=CN5C)=C5C=C3]: the IC50 in assay [1] (setting [4]) stood at 21.9 µM. In assay [1] (FP), this compound yielded an inhibition at 50 µM above 99%. Besides, the “Amplification coefficient 5TA x 38SZ” value at Mcl-1 [2] is given as 8. Also, at Mcl-1 [3], the “Amplification coefficient 1TA x 1SZ” value is given as 5.5.

`Cn1cc(C(=O)c2cccs2)c2cc(C(=O)NS(=O)(=O)c3ccc(CN(CCSc4ccccc4)Cc4ccc5c(c4)OCO5)cc3)ccc21` [SZ31TA45, O=C(NS(C1=CC=C(CN(CC2=CC(OCO3)=C3C=C2)CCSC4=CC=CC=C4)C=C1)(=O)=O)C5=CC(C(C(C6=CC=CS6)=O)=CN7C)=C7C=C5] displayed an inhibition at 50 µM in assay [1] (FP) of 40.2%. Further, on Mcl-1 [2], the “Amplification coefficient 5TA x 38SZ” value is 25. The “Amplification coefficient 1TA x 1SZ” value at Mcl-1 [3] was 6.

As for `CC(C)(C)c1ccc(-c2ccc(S(=O)(=O)NC(=O)c3ccc4c(ccn4Cc4ccc(C(F)(F)F)cc4C(F)(F)F)c3)cc2)cc1` [SZ11TA30, O=C(NS(C1=CC=C(C2=CC=C(C(C)(C)C)C=C2)C=C1)(=O)=O)C3=CC(C=CN4CC5=CC=C(C(F)(F)F)C=C5C(F)(F)F)=C4C=C3], in assay [1] (FP), at 50 µM the inhibition was 63.6%. Besides, the “Amplification coefficient 5TA x 38SZ” value at Mcl-1 [2] was found to be 12. At Mcl-1 [3], the “Amplification coefficient 1TA x 1SZ” value worked out at 7.

Regarding `Cc1nc(-c2ccccc2)sc1C(=O)NS(=O)(=O)c1ccc(CN(CCSc2ccccc2)Cc2ccc3c(c2)OCO3)cc1` [SZ31TA3, O=C(NS(C1=CC=C(CN(CCSC2=CC=CC=C2)CC3=CC(OCO4)=C4C=C3)C=C1)(=O)=O)C5=C(C)N=C(C6=CC=CC=C6)S5], in assay [1] (setting [4]), the 50% inhibitory concentration (IC50) amounted to 9.4 µM. Besides, the inhibition at 50 µM in assay [1] (FP) is above 99%. The “Amplification coefficient 5TA x 38SZ” value at Mcl-1 [2] came to 15. Further, the “Amplification coefficient 1TA x 1SZ” value on Mcl-1 [3] is on record as 7.

`O=C(NS(=O)(=O)c1ccc(CN(CCSc2ccccc2)Cc2c(F)cccc2Cl)cc1)c1cccc2ccccc12` [SZ15TA7, O=C(NS(C1=CC=C(CN(CCSC2=CC=CC=C2)CC3=C(F)C=CC=C3Cl)C=C1)(=O)=O)C4=C(C=CC=C5)C5=CC=C4]: the inhibition at 50 µM in assay [1] (FP) is 98.4%. Besides, the IC50 in assay [1] (IC50 on Mcl-1) was found to be 15.4 µM. Moreover, the “Amplification coefficient 5TA x 38SZ” value on Mcl-1 [2] worked out at 8. Besides, the “Amplification coefficient 1TA x 1SZ” value on Mcl-1 [3] stood at 9.

As for `COc1cc2c(cc1OC)C(c1ccccc1)N(Cc1ccc(S(=O)(=O)NC(=O)CCCN3C(=O)C(c4ccc(F)cc4F)=C(c4ccc(F)cc4F)C3=O)cc1)CC2` (stereo not shown) [SZ8TA20, O=C(NS(C1=CC=C(CN2CCC(C=C(OC)C(OC)=C3)=C3C2C4=CC=CC=C4)C=C1)(=O)=O)CCCN5C(C(C6=C(F)C=C(F)C=C6)=C(C7=CC=C(F)C=C7F)C5=O)=O], testing at 50 µM in assay [1] (FP) gave an inhibition of 19.2%. In addition, at Mcl-1 [2], the “Amplification coefficient 5TA x 38SZ” value is 20. Also, the “Amplification coefficient 1TA x 1SZ” value at Mcl-1 [3] is 10.

As for `COc1cccc(CN(CCSc2ccccc2)Cc2ccc(S(=O)(=O)NC(=O)c3ccc4c(c3)c(C(=O)c3cccs3)cn4C)cc2)c1` [SZ17TA45, O=C(NS(C1=CC=C(CN(CCSC2=CC=CC=C2)CC3=CC(OC)=CC=C3)C=C1)(=O)=O)C4=CC(C(C(C5=CC=CS5)=O)=CN6C)=C6C=C4], in assay [1] (FP), at 50 µM the inhibition was 34.5%. In addition, on Mcl-1 [2], the “Amplification coefficient 5TA x 38SZ” value amounted to 16. The “Amplification coefficient 1TA x 1SZ” value at Mcl-1 [3] stood at 20.

Compound `NS(=O)(=O)c1ccc(CN(CCSc2ccccc2)Cc2ccc(S(=O)(=O)NC(=O)c3cccc(NCCc4ccccc4)c3)cc2)cc1` [SZ10TA44, O=C(NS(C1=CC=C(CN(CCSC2=CC=CC=C2)CC3=CC=C(S(=O)(N)=O)C=C3)C=C1)(=O)=O)C4=CC(NCCC5=CC=CC=C5)=CC=C4] displayed an inhibition at 50 µM in assay [1] (FP) of 63.4%. For the same compound, the “Amplification coefficient 5TA x 38SZ” value on Mcl-1 [2] is on record as 12. For the same compound, the “Amplification coefficient 1TA x 1SZ” value on Mcl-1 [3] stood at 9.
